Source: patent US20210254272A1, “TEXTILES HAVING ANTIMICROBIAL PROPERTIES” (Livinguard AG, priority 2015, published 2021)

Assay: Leaching: 10 grams fabric in 100 milliliters distilled water, 7 days, GC-MS
Format: physicochemical
Experimental: To test for a potential leaching of the antimicrobial agents fixed to the textile material, the following test was performed. A test fabric of polyester 65%/cotton 35% with 210 g/m2 was treated with polyhexamethylenebiguanide (PHMB) 0.5%, silver chloride 0.075%, octadecylaminomethyl trihydroxysilylpropyl ammonium chloride (organosilane) 0.4%, and propiconazole 0.5%
The treated textile material was put into distilled water at a ratio of 1:10. Specifically, a fabric of 10 grams was soaked in 100 milliliters of distilled water. The fabric was incubated in the water for 7 days at room temperature, i.e. between 21 and 25° C.
Following said incubation time, the fabric was removed from the water and the exposed water was tested for the presence of the above five active ingredients using gas chromatography-mass spectrometry (GC-MS).

## [Cl][Ag] [Silver chloride]
  Extracted water Conc, ppm: BDL (BDL-below detection limit Detection limit: 1 parts per million (ppm))
